These are literature values, as cited in patent US20250312332A1, “TREATMENT OF MUSCLE FIBROSIS” (University of Newcastle upon Tyne, priority 2022, published 2025).

Series [1] deals with Leukemia-associated Rho guanine nucleotide exchange factor (LARG) (Homo sapiens, UniProt Q9NZN5). The note with it: cited from earlier work.
For a further series, the system named is NIH 3T3 cells. The following applies: 10-30 μM, 24 hours; cited from earlier work.
The test system of a further series is Rho signaling. The note with it: cited from earlier work.
In series [2] the test system is PC-3 prostate cancer cell. The note with it: in vitro; cited from earlier work.
The conditions of series [3]: insulin-resistant mice; cited from earlier work.
For a further series, the target named is ROCK1 (Homo sapiens, UniProt Q13464). The following applies: cited from earlier work.
ROCK1, sequence (Q13464 whole entry): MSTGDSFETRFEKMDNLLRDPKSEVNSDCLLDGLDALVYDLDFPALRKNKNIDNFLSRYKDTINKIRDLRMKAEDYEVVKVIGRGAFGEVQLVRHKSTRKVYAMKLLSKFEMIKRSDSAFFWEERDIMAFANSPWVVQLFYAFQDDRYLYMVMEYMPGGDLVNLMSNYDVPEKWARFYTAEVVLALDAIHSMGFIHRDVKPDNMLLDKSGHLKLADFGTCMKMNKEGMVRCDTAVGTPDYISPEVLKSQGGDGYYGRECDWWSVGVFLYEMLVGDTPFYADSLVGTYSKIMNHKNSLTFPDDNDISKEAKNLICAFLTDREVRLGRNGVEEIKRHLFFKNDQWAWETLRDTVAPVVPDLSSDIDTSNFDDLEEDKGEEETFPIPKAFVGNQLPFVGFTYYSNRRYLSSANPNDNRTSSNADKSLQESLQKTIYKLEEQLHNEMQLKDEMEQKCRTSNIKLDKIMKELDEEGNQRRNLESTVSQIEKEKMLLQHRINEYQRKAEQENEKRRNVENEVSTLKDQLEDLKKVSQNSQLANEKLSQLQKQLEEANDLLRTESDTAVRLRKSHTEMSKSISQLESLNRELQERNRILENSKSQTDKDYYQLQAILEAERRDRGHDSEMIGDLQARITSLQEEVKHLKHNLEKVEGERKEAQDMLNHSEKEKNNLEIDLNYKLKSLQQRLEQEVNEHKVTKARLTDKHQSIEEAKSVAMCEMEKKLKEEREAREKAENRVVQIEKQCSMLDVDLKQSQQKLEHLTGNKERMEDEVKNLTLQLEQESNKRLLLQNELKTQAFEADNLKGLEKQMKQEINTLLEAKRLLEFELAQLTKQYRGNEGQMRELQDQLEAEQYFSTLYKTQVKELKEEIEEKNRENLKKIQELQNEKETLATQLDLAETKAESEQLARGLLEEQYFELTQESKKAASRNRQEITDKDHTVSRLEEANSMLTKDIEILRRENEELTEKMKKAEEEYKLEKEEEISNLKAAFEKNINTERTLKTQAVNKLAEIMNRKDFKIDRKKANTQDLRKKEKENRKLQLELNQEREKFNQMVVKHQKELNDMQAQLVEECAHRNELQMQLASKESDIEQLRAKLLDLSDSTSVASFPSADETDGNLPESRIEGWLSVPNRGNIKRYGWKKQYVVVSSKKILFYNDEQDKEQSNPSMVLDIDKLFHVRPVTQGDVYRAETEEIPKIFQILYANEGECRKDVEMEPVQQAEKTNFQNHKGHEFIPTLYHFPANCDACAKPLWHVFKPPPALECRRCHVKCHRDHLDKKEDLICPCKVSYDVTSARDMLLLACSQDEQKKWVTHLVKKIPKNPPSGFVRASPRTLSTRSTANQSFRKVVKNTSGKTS
The conditions of series [4]: spontaneously hypertensive rat; cited from earlier work.
Series [5] relates to myosin II light chain (MLC) phosphorylation induced by MRCKβ. The following applies: in vitro; cited from earlier work.
Another series deals with ROCK2 (Homo sapiens, UniProt O75116). The following applies: cited from earlier work.
ROCK2, sequence (O75116 whole entry): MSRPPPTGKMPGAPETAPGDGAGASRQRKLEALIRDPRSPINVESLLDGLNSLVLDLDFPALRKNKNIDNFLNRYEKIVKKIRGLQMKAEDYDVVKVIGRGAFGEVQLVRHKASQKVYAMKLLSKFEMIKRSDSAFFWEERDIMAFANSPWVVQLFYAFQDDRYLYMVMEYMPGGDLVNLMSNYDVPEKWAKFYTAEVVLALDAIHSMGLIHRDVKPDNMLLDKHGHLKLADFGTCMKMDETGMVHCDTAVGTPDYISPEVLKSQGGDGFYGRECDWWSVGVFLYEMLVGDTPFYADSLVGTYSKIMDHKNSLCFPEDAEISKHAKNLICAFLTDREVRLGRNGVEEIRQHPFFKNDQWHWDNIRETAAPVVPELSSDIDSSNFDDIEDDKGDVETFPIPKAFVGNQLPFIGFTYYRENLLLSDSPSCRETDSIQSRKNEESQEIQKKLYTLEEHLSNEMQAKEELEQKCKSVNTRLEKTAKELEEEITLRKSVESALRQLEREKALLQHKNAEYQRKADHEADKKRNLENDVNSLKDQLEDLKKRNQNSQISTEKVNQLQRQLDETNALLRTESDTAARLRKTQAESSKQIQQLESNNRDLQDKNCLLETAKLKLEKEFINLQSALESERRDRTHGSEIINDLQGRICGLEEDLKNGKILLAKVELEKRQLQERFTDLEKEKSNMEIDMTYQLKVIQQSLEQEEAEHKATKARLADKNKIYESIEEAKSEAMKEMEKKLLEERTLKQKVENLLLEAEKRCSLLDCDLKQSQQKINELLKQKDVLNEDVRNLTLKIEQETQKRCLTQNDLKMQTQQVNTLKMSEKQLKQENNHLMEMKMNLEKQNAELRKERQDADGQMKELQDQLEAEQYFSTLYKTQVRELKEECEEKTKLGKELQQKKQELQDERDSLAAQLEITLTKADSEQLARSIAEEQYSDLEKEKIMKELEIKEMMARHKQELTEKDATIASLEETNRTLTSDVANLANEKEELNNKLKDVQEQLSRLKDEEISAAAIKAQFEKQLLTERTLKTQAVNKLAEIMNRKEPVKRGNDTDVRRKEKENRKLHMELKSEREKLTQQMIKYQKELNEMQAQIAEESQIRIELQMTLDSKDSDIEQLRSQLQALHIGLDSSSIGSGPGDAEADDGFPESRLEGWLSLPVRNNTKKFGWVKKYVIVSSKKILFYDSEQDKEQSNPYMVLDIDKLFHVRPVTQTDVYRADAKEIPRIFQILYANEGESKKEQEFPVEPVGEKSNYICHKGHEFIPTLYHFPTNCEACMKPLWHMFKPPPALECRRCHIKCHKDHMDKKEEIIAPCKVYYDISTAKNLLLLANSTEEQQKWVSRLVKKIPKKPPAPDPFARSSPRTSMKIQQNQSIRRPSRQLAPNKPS
The target in the next series is MRCKα (Homo sapiens, UniProt Q5VT25). The note with it: cited from earlier work.
A further series has as its system PKA. The following applies: cited from earlier work.
A further series addresses HMG-COA reductase (Homo sapiens, UniProt P04035). The note with it: cited from earlier work.
The subject of the next series is MDA-MB-231 cells. The note with it: cited from earlier work.
Another series concerns iNOS gene expression. The note with it: 10-100 μM; 18 hours; cited from earlier work.
Another series relates to RAVSMC. The following applies: LPS plus INF-y; 18 hours; read-out: IC50 for accumulation of nitrite in RAVSMC; cited from earlier work.
A further series has as its system RAW 264.7. The note with it: LPS plus INF-y; 18 hours; read-out: IC50 for accumulation of nitrite in RAW 264.7; cited from earlier work.
A further series concerns the target RhoA (Homo sapiens, UniProt P61586). The following applies: read-out: Kd for RhoA (RhoA subfamily Rho GTPases); cited from earlier work.
The next series has as its system rat aorta. The note with it: cited from earlier work.
The conditions of series [6]: monkey eyes; cited from earlier work.
For a further series, the target named is MLCK. The following applies: cited from earlier work; for Ki: read-out: Ki for MLCK / MLC-kinase.
Series [7] has as its target ROCK. The following applies: read-out: Ki (ROCK / Rho kinase); cited from earlier work.
For the next series, the target named is PKC. The note with it: cited from earlier work.
The next series relates to neuronal cultures. The following applies: cited from earlier work.
For series [8] the following is noted: 0.1%, 0.3%, and 0.5%, cited from earlier work.
Another series concerns B16BL6 and 4T1 cells. The note with it: murine animal models; cited from earlier work.
For series [9], the system named is Cdc42 or Rac1, nor the GEF, LARG. The note with it: cited from earlier work.
The next series deals with PASMC. The following applies: cited from earlier work.
For series [10] the following is noted: after transient middle cerebral artery occlusion; cited from earlier work.
Series [11] has as its target cGMP-dependent protein kinase (PKG). The note with it: cited from earlier work.
Series [12] concerns T47D and CAMA-1 breast cancer cells. The note with it: T47D and CAMA-1 cells; cited from earlier work.
Series [13] deals with ROCK-mediated phosphorylation of MYPTT696. The following applies: thoracic aorta of spontaneously hypertensive rats; cited from earlier work.
Another series has as its target rat ROCK-2 (Rattus norvegicus, UniProt Q62868). The following applies: cited from earlier work.
Series [14] concerns Rab2, Rab7, H-Ras, Rac1, Rac 2 and RhoA wild-type. The following applies: cited from earlier work.
A further series addresses Cdc42 (Homo sapiens, UniProt P60953). The note with it: cited from earlier work.
A further series relates to granulocytes. The following applies: 50 μM; for 15 min; cited from earlier work.
For series [15] the following is noted: in vitro; cited from earlier work.
Series [16] deals with ROCK. The note with it: read-out: Kds, binding to ROCK; cited from earlier work.
Series [17] deals with B16 melanoma. The following applies: cited from earlier work.
Series [18] deals with B16 melanoma. The following applies: cited from earlier work. The source holds these as a separate data set.
The target of the next series is Rac1 (Homo sapiens, UniProt P63000). The note with it: cited from earlier work.
Series [19] relates to other Rho GTPases (such as Cdc42 or RhoA). The note with it: cited from earlier work.
The subject of another series is MRCK. The following applies: read-out: IC50 against MRCK; cited from earlier work.
A further series relates to PC-3 cell. The note with it: read-out: IC50 for PC-3 cell migration; cited from earlier work.
A further series concerns MKL1 expression. The following applies: 25 μM; cited from earlier work.

The structures appear in SMILES notation. Structures can show the parent of a compound that is named as a salt. Where two headings read alike, the source gives them in different places.

HMG-COA reductase, sequence (P04035 whole entry, species assumed): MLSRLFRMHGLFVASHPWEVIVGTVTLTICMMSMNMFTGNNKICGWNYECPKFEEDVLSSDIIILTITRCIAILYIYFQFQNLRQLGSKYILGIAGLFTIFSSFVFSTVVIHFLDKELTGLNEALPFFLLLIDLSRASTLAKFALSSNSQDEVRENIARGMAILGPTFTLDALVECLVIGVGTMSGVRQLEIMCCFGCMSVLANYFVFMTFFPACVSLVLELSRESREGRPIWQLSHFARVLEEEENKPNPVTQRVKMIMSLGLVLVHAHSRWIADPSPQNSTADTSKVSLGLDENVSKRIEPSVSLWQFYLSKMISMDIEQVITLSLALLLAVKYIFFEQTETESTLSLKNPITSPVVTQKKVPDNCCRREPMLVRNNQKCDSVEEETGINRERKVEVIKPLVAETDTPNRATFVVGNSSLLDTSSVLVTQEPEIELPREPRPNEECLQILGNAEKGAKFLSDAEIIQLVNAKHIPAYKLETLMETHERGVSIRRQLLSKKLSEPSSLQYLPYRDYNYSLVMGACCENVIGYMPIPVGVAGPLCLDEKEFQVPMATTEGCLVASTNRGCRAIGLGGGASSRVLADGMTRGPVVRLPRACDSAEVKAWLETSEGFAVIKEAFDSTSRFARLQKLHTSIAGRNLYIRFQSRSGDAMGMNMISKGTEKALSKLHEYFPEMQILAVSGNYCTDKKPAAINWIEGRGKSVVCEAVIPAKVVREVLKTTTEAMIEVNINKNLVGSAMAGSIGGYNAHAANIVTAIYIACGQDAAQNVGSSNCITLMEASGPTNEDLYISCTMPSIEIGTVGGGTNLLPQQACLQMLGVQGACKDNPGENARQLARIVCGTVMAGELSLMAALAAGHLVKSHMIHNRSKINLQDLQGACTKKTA
RhoA, sequence (P61586 whole entry): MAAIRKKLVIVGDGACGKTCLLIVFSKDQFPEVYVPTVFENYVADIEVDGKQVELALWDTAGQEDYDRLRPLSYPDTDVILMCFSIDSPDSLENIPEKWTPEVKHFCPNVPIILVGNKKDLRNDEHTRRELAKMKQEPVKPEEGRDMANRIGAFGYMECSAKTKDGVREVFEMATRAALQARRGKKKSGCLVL
Cdc42, sequence (P60953 whole entry): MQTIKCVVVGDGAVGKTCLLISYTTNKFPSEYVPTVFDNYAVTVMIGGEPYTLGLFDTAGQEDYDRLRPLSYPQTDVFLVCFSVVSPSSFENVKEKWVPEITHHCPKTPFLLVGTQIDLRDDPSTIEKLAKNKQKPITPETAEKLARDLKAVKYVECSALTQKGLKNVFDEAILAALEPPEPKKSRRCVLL

Take `Cc1cccc(COc2cccc(/C=C3\C(=O)NN(c4ccccc4)C3=O)c2)c1` [Compound Y16]: the Kd in series [1] was 0.076 µM. Besides, in the series on NIH 3T3 cells, the “RhoA-GTP formation induced by serum” value is “inhibit RhoA-GTP formation”; the “serum or SDF-1α-induced phospho-MLC and phospho-FAK formation” value is recorded as “efficiently inhibits”.
In the case of `CC(ONC(=O)c1cc(C(F)(F)F)cc(C(F)(F)F)c1)C(=O)Nc1ccc(Cl)cc1` (stereo not shown) [CCG-1423], the IC50 with Rho signaling is 1.5 µM. Besides, the “spontaneous PC-3 cell invasion through a Matrigel matrix” value in [2] was “selectively inhibited”. The “glucose uptake and tolerance” value in series [3] was “improved glucose uptake and tolerance”.
Regarding `CC1=C(C(=O)Nc2cc3cn[nH]c3cc2F)C(c2ccc(Cl)cc2F)N=C(c2ccnc(Cl)c2)N1` (stereo not shown) [GSK-25], the IC50 on ROCK1 was 0.007 µM. For the same molecule, the blood pressure result in series [4] is reported as “drop in blood pressure”.
For `O=C(Nc1cn[nH]c1-c1ccccn1)c1nn(C2CCNCC2)cc1Cl` [BDP5290], the “MLC phosphorylation induced by MRCKβ” value in series [5] was “completely inhibits”. Also, the values for the IC50 at ROCK2, at ROCK1 and on MRCKα were 0.05 µM, 0.005 µM and 0.01 µM, respectively.
Consider `Cc1c[nH]c2ncnc(N3CCC(CN)(C(=O)Nc4cccc(OC(=O)N(C)C)c4)CC3)c12` [LX7101], for which the IC50 with PKA (read-out: IC50 for PKA) was under 0.001 µM.
Regarding `COCc1c(C(C)C)nc(C(C)C)c(/C=C/[C@@H](O)C[C@@H](O)CC(=O)O)c1-c1ccc(F)cc1` [Cerivastatin], on HMG-COA reductase, the Ki is 0.0013 µM. For the same molecule, the “proliferation and invasiveness of MDA-MB-231 cells” value in the series on MDA-MB-231 cells was “inhibits proliferation and invasiveness”.
For the molecule `Br.Oc1cc2c(cc1O)C(Cc1cccc3ccccc13)NCC2` (stereo not shown) [YS-49], in the series on iNOS gene expression, the “iNOS gene expression induced by LPS and/or cytokines” value is listed as “suppresses iNOS gene expression”. The IC50 in the series on RAVSMC was 22 µM; in the series with RAW 264.7, 30 µM.
On to `N[C@H](Cc1c[nH]c2ccccc12)C(=O)N/N=C/c1ccc2nccnc2c1` [Rhosin hydrochloride], for which the Kd on RhoA was about 0.4 µM.
On to `c1cc(-c2ncco2)cc(-c2nnc(Nc3ccc4[nH]ncc4c3)s2)c1` [ROCK2-IN-2], for which the IC50 on ROCK2 is under 1 µM.
On to `O=C(O)/C=C/c1cccc(Nc2cnc3ccccc3n2)c1` [HL07], for which the “phenylephrine (PE)-induced contraction” value with rat aorta was “inhibited”.
Regarding `Cc1ccc(C(=O)OCc2ccc([C@@H](CN)C(=O)Nc3ccc4cnccc4c3)cc2)c(C)c1` [AR-13324], the intraocular pressure entry in series [6] is on record as “reduced intraocular pressure”.
As for `Cc1cncc2cccc(S(=O)(=O)N3CCCNC[C@@H]3C)c12` [Compound H-1152], the Ki is 10.1 µM on MLCK, 0.0016 µM on ROCK [7] and 9.27 µM on PKC. For the same molecule, the neurite length result in the series with neuronal cultures (10 μM, BMP4 and LIF cultures) is given as “increases neurite length”. In the series on neuronal cultures (0.5-10 μM), the neuronal survival result is recorded as “no decreased neuronal survival”.
Take `CCCOC(=O)c1cccc(-c2cc(C(=O)Nc3ccncc3F)ccc2CN)c1` [Sovesudil]: the IC50 was 0.0023 µM on ROCK2 and 0.0037 µM on ROCK1. Besides, the “Intraocular Pressure (IOP)” value in series [8] (ocular normotensive and acute hypertensive male rabbits) is on record as “effectively reduces Intraocular Pressure”. Further, the hyperemia result in series [8] (rabbits) is recorded as “without causing distinct hyperemia”.
Turning to `N[C@H](Cc1c[nH]c2ccccc12)C(=O)N/N=C/c1ccc2nccnc2c1` [Rhosin], in the series on B16BL6 and 4T1 cells, the “lung metastasis of B16BL6 and 4T1 cells” value was “abrogates the lung metastasis”. Besides, the “interaction with Cdc42 or Rac1, or LARG” value in [9] is reported as “does not interact”.
For `CC(C)NC(=O)COc1cccc(-c2nc(Nc3ccc4[nH]ncc4c3)c3ccccc3n2)c1` [Belumosudil], the “Tsp-1 and CTGF mRNA levels” value in the series with PASMC is recorded as “significant down-regulations”. The infarct volume entry in series [10] is “dose-dependently reduces infarct volume”.
For `O=S(=O)(c1cccc2cnccc12)N1CCNCC1` [HA-100], the IC50 in the series on MLCK (read-out: IC50 for MLC-kinase) was 240 µM; in the series with PKA (read-out: IC50 for cAMP-dependent protein kinase (PKA)), 8 µM; in series [11], 4 µM; in the series with PKC (read-out: IC50 for protein kinase C (PKC)) it was 12 µM. Moreover, the values for the Ki at MLCK and on PKC were 61 µM and 6.5 µM, respectively.
Turning to `COc1ccc(CC(=O)Nc2nc3c(s2)CCc2ccccc2-3)cc1OC` [ZINC00881524], in series [12], the “levels of ROCK1” value is “decreases levels of ROCK1”.
Take `O=c1[nH]ccc2cc(OC3CCNCC3)ccc12` [SAR407899]: the “ROCK-mediated phosphorylation of MYPTT696” value in series [13] is recorded as “inhibits”. The IC50 at ROCK2 is 0.135 µM. Besides, the Ki at rat ROCK-2 is 0.041 µM.
For `NS(=O)(=O)c1ccc(N2N=C(c3ccccc3)CC2c2ccccc2)cc1` (stereo not shown) [MLS-573151], the “activity against other GTPases family members” value in series [14] was “inactive”. The EC50 at Cdc42 was 2 µM. Also, in the series with granulocytes, the “fluorescence intensities of phagocytosed beads or bacteria (phagocytosis efficiency)” value was “markedly reduced”.
As to `O=S(=O)(c1cccc2c(I)cccc12)N1CCCNCC1` [ML-07 hydrochloride], the IC50 in the series on MLCK (read-out: IC50 for MLCK) was 0.3 µM.
In the case of `COc1c(B(O)O)cccc1-c1nc2ccc3[nH]ncc3c2c2c1CCC2` [HSD1590], in series [15], the migration result is “impressive attenuation in migration”. For the same molecule, the Kd on ROCK [16] is under 0.002 µM.
Consider `C[C@@H](N)c1ccc(C(=O)Nc2ccncc2)cc1` [Wf-536, (+)-(R)-4-(1-aminoethyl)-N-(4-pyridyl)benzamide monohydrochloride], for which, in the series on B16 melanoma [17], the “in vitro invasion of B16 melanoma” value was “effectively reduced”. Besides, the “in vivo pulmonary metastasis of B16 melanoma” value in the series with B16 melanoma [18] is on record as “effectively reduced”.
In the case of `Cc1ccc(NC(=O)c2cccc(OCc3c(C)noc3C)c2)cc1S(N)(=O)=O` [Compound Z62954982], on Rac1, the IC50 is 12 µM and the “times more effective than NSC23766” value is given as 4 times. In series [19], the “activity of other Rho GTPases” value is “without affecting the activity”.
In the case of `CCn1c(-c2nonc2N)nc2cnc(Oc3cccc(NC(=O)c4ccc(OCCN5CCOCC5)cc4)c3)cc21` [GSK269962A], the blood pressure result in series [4] is “dose-dependent reduction in blood pressure”.
For the molecule `COc1ccc2c(c1)C[C@H](C(=O)Nc1ccc(-c3cn[nH]c3)cc1OCCN(C)C)CO2` [Chroman 1], in the series with MRCK, the IC50 is 0.15 µM.
For `O=C(Nc1ccc(Cl)cc1)C1CCCN(C(=O)c2cccc(-c3ccco3)c2)C1` (stereo not shown) [CCG-203971], the IC50 in the series on PC-3 cell was 4.2 µM. Besides, in the series on MKL1 expression, the “TGF-β-induced MKL1 expression” value is reported as “significantly represses”.
Take `N[C@H](CNc1nc(-c2ccncc2)nc2sc3c(c12)CCCC3)Cc1ccccc1` [CRT0066854]: on ROCK2, the IC50 is 0.62 µM.
